# Values quoted from earlier work, collected in US20110052647A1, “Antidepressant Oral Pharmaceutical Compositions” (priority 2005, published 2011).
# Experiments:
# [1] = system: monoamine oxidase (MAO)
# [2] = oral administration of capsules containing enteric-coated pellets
# [3] = system: dopaminergic, adrenergic, cholinergic or histaminergic receptors; settings: in vitro
# [4] = not given; remark: listed apart in the source
structure (smiles),measurement,setting,value
"CNCC[C@H](Oc1cccc2ccccc12)c1cccs1 [Duloxetine, (S)-N-methyl-3-(1-naphthyloxy)-3-(2-thienyl)propan-1-amine]",inhibition of monoamine oxidase (MAO),[1],does not inhibit
same,mean plasma elimination half-life,[2],12.1 h
same,median time to maximum concentration (Tmax),[2],6 h
same,"affinity for dopaminergic, adrenergic, cholinergic or histaminergic receptors",[3],no significant affinity
same,pH values at which unstable in solution,,less than 2.5
same,dosage hydrolyzed to 1-naphthol,"[4]; pH of 1.0, within one hour",50%
same,dosage degrades to 1-Naphthol,"[4]; pH of 2.0, in one hour",10%
same,time for 10% degradation,[4]; pH of 4.0,up to 63 hours
